{"source": "paper PMC4444023", "about": "(PLoS ONE, 2015)", "key": {"human nSMase2": {"molecular_target": "T1, human nSMase2 (Homo sapiens, UniProt Q9NY59)", "T1 sequence (Q9NY59 1-655)": "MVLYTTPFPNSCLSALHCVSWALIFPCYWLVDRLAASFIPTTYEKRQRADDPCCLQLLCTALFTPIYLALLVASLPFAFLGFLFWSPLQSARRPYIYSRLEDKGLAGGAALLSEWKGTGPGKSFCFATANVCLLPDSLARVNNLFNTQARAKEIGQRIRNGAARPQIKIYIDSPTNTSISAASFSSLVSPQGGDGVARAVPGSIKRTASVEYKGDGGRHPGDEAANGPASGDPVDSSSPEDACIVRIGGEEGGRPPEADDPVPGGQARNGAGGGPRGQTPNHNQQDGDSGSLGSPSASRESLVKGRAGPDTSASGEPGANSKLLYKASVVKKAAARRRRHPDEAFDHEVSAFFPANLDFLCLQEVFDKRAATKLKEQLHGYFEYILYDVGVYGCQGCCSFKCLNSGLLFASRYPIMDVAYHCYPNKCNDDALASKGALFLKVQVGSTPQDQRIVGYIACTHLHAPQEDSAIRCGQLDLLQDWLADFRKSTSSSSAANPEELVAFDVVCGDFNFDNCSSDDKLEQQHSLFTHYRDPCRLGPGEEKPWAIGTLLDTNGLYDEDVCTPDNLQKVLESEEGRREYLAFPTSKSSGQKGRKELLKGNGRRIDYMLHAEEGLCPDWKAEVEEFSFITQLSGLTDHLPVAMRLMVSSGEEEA", "assay": "14C-SM confirmatory direct activity assay", "format": "biochemical", "design": "Full length human nSMase2 cDNA with a C-terminal Flag tag; host or cells: HEK293, stably transfected; crude cell lysate used as enzyme", "procedure": "This assay was dependent on the direct hydrolysis of ^14C-labeled SM (^14C N-methyl groups in the phosphorylcholine) by human nSMase2. Optimization of assay conditions was accomplished according to the methods of Barbone et al.. Briefly, bovine [N-methyl-^14C]-sphingomyelin (specific activity […], Perkin Elmer) and phosphatidylinositol (Avanti Polar Lipids) were evaporated to dryness under a stream of nitrogen and resuspended at an equimolar concentration of 0.1 mM in water with 0.5% Triton X-100 (Sigma). The solution was vortexed for 30 min and then sonicated for 30 min. Assay conditions were as follows: 50 μl total volume per reaction, consisting of 20 μM SM, reaction buffer (100 mM Tris-HCl pH 7.5, 80 mM MgCl2, 0.1% Triton X-100); 10 μl cell lysate containing recombinant human nSMase2 (0.5–1 μg protein/assay) and 5 μl of compound in reaction buffer containing 10% DMSO. After 1 h incubation at 37°C the reaction was terminated by the addition of 30 μl of water and 175 μl of chloroform/methanol (2:1, v:v), followed by vigorous vortexing. Tubes were centrifuged for 5 min at 10,000 xg at room temperature to separate the organic bottom phase containing labeled SM and the aqueous upper phase containing ^14C-labeled-phosphorylcholine. An aliquot (50 μl) of the upper phase was transferred to a vial with 10 ml of scintillant and counted for 2 min on a Beckman LS-6000IC scintillation counter. Enzyme activity was directly proportional to the disintegrations per min (dpm) resulting from the generation of ^14C-phosphorylcholine."}, "SIRT1": {"test_system": "SIRT1", "details": "NAD-dependent deacetylase activity; cited from earlier work"}, "[1]": {"test_system": "rat primary hippocampal neurons", "assay": "Hippocampal neuronal survival (Hoechst 33342)", "format": "cell-based", "details": "for effect on TNF-α or IL-1β-induced neuron cell death (words): Hoechst 33342 staining", "procedure": "All animal procedures were approved by the Johns Hopkins University Animal Care and Use Committee. Primary hippocampal neurons were prepared from day 18 decapitated embryos of Sprague-Dawley rats following previously described methods. Cells were seeded on polyethyleneimine (PEI)-coated slides in 12-well plates and cultured between 14–21 days. […] After 18 h, cells were stained with 50 μg/ml Hoeschst 33342 for 20 min and then fixed with 4% paraformaldehyde for 30 min. The number of living and apoptotic cells was determined by fluorescence microscopy. A minimum of 500 cells were counted per treatment condition. Results were normalized to control untreated cells and were representative of at least two independent experiments conducted in triplicate. Statistical evaluation of the data was done by Student’s t-test."}}, "note": "pIC50: −log10 of the molar value. Several values for one entry are separate records, joined by “and”; a condition that tells them apart may be missing. Equal values may be shown once. Entries after “also recorded” stand apart in the source; their conditions may differ.", "data": [{"molecule": "O=c1[nH]c(=S)[nH]c(-c2ccccc2)c1Cc1c(O)ccc2ccccc12", "note": "[Cambinol, cambinol]", "values": [{"measurement": "%Inhibition", "setting": "human nSMase2; Log [compound] -3.0", "value": "92.0% and 91.0%"}, {"measurement": "%Inhibition", "setting": "human nSMase2; Log [compound] -3.47756", "value": "99.0% and 86.0%"}, {"measurement": "%Inhibition", "setting": "human nSMase2; Log [compound] -4.0", "value": "83.0% and 80.0%"}, {"measurement": "%Inhibition", "setting": "human nSMase2; Log [compound] -5.0", "value": "56.0% and 57.0%"}, {"measurement": "%Inhibition", "setting": "human nSMase2; Log [compound] -5.47756", "value": "46.0% and 47.0%"}, {"measurement": "%Inhibition", "setting": "human nSMase2; Log [compound] -6.0", "value": "13.0% and 15.0%"}, {"measurement": "%Inhibition", "setting": "human nSMase2; Log [compound] -7.0", "value": "0.0% and 10.0%"}, {"measurement": "%Inhibition", "setting": "human nSMase2; Log [compound] -7.47756", "value": "8.0% and 10.0%"}, {"measurement": "%Inhibition", "setting": "human nSMase2; Log [compound] -8.0", "value": "8.0% and 11.0%"}, {"measurement": "%Inhibition", "setting": "human nSMase2; Log [compound] -8.47756", "value": "14.0% and 7.0%"}, {"measurement": "%Inhibition", "setting": "human nSMase2; Log [compound] -9.0", "value": "6.0% and 4.0%"}, {"measurement": "%Inhibition", "setting": "human nSMase2; Log [compound] -9.47756", "value": "12.0% and 18.0* %"}, {"measurement": "inhibition at 10 µM", "setting": "human nSMase2; at 10 μM", "value": "> 80", "unit": "%"}, {"measurement": "pIC50", "setting": "SIRT1", "value": 4.25}, {"measurement": "neuron survival, Mean (normalized to control untreated cells)", "setting": "[1]; 100 ng/ml IL1β 18 h, 0.1 µM compound", "value": 77.25}, {"measurement": "neuron survival, Mean (normalized to control untreated cells)", "setting": "[1]; 100 ng/ml IL1β 18 h, 0.3 µM compound", "value": 74.03}, {"measurement": "neuron survival, Mean (normalized to control untreated cells)", "setting": "[1]; 100 ng/ml IL1β 18 h, 1 µM compound", "value": 84.51}, {"measurement": "neuron survival, Mean (normalized to control untreated cells)", "setting": "[1]; 100 ng/ml IL1β 18 h, 3 µM compound", "value": 93.01}, {"measurement": "neuron survival, Mean (normalized to control untreated cells)", "setting": "[1]; 100 ng/ml IL1β 18 h, 10 µM compound", "value": 93.58}, {"measurement": "neuron survival, Mean (normalized to control untreated cells)", "setting": "[1]; 100 ng/ml IL1β 18 h, 25 µM compound", "value": 97.12}, {"measurement": "neuron survival, Mean (normalized to control untreated cells)", "setting": "[1]; 100 ng/ml TNFα 18 h, 0.1 µM compound", "value": 78.25}, {"measurement": "neuron survival, Mean (normalized to control untreated cells)", "setting": "[1]; 100 ng/ml TNFα 18 h, 0.3 µM compound", "value": 82.52}, {"measurement": "neuron survival, Mean (normalized to control untreated cells)", "setting": "[1]; 100 ng/ml TNFα 18 h, 1 µM compound", "value": 86.26}, {"measurement": "neuron survival, Mean (normalized to control untreated cells)", "setting": "[1]; 100 ng/ml TNFα 18 h, 3 µM compound", "value": 90.17}, {"measurement": "neuron survival, Mean (normalized to control untreated cells)", "setting": "[1]; 100 ng/ml TNFα 18 h, 10 µM compound", "value": 91.48}, {"measurement": "neuron survival, Mean (normalized to control untreated cells)", "setting": "[1]; 100 ng/ml TNFα 18 h, 25 µM compound", "value": 92.36}, {"measurement": "effect on TNF-α or IL-1β-induced neuron cell death (words)", "setting": "[1]", "value": "decreased"}, {"measurement": "effect on TNF-α or IL-1β-induced neuron cell death (words)", "setting": "[1]; listed as cambinol", "value": "prevent; also recorded: inhibited; also recorded: protected"}, {"measurement": "neuron survival, Mean (normalized to control untreated cells)", "setting": "[1]; No IL1β, 25 µM compound", "value": 91.21}]}]}
